Laboratory results reported in patent publication US20070196763A1, “Method of forming laminated resist” (DAIKIN INDUSTRIES, LTD., priority 2003, published 2007).
“And” between values parts separate entries of the source, which are not always exact repeats. Equal entries are not always repeated.

What was measured:
[1] = Determination of pKa value of monomer having hydrophilic group by NaOH titration
Experimental: In a water/acetone mixture (10/15 ml) solution was poured 0.7865 g of CH2═CHCH2C(CF3)2OH, followed by stirring at room temperature. After it was confirmed that the solution was homogeneous, titration was carried out with about 0.2 mol/L NaOH solution. A titration curve was obtained by adding the NaOH solution dropwise in increments of 0.15 ml and recording a pH value at every addition. An equivalence point was determined by an inflection point (maximum differential value of titration curve=dpH/dml) of the titration curve.

[2] = monomer having hydrophilic group used in the Preparation Example, NaOH titration in water/acetone, corrected
[3] = water/acetone mixture, pKa, monomer having hydrophilic group used in the Preparation Example, corrected

| Structure (SMILES) | pKa [1, 2] | pKa [1, 3] | also measured |
| --- | --- | --- | --- |
| C=C(F)C(F)(F)OC(F)(C(F)(F)F)C(F)(F)OC(F)(C(F)(F)F)C(F)(F)OC(F)(C(F)(F)F)C(F)(F)OC(F)(C(=O)O)C(F)(F)F (centres unmarked) [perfluoro-(15,15-dihydro-2,5,8,11-tetrakistrifluoromethyl-3,6,9,12-tetraoxa-14-pentadecenic acid)] | 4.0 | – | – |
| C=C(F)C(F)(F)OC(F)(C(F)(F)F)C(F)(F)OC(F)(CO)C(F)(F)F (centres unmarked) [(1,1,9,9-tetrahydro-2,5-bistrifluoromethyl-3,6-dioxa-8-nonenol)] | 12.6 | – | – |
| C=C(F)C(F)(F)OC(F)(C(=O)O)C(F)(F)F (centres unmarked) [perfluoro-(6,6-dihydro-2-trifluoromethyl-3-oxa-5-hexenoic acid)] | – | – | pKa (physchem): 3.4 |
| C=CCC(O)(C(F)(F)F)C(F)(F)F [CH2═CHCH2C(CF3)2OH, 1,1-bistrifluoromethyl-3-buten-1-ol] | – | 9.6 | pKa value (single titration) ([1]; NaOH titration in water/acetone, pH at half equivalence point minus blank difference): 9.64 and 9.54; pKa ([1]; water/acetone mixture, pKa value (decided from experiments carried out three times), NaOH titration in water/acetone): 9.6; pKa ([1]; water/acetone mixture, pKa value (single titration), NaOH titration in water/acetone, pH at half equivalence point minus blank difference): 9.69 |
| C=C(C(=O)O)C(F)(F)F [2-(trifluoromethyl)acrylic acid] | – | 3.9 | – |
| C=C(F)C(F)(F)OC(F)(C(F)(F)F)C(F)(F)OC(F)(C(F)(F)F)C(F)(F)OC(F)(C(=O)O)C(F)(F)F (centres unmarked) [perfluoro-(12,12-dihydro-2,5,8-tristrifluoromethyl-3,6,9-trioxa-11-dodecenic acid)] | 3.8 | – | – |
| O=C(O)/C=C\C(=O)O [Maleic acid] | – | 1.4 | – |
| C=C(F)C(F)(F)OC(F)(C(F)(F)F)C(F)(F)OC(F)(C(=O)O)C(F)(F)F (centres unmarked) [perfluoro-(9,9-dihydro-2,5-bistrifluoromethyl-3,6-dioxa-8-nonenoic acid)] | 3.6 | – | – |
